Test: mn = molality of the nth substance listed, in mol/kg
Settings: Liquid, Vibrating tube method

[Br-].[Li+] [lithium bromide] + CCO
Settings | mass density [kg/m3]
313.16 K, 69943 kPa, m1 = 2.272 | 954.83
313.16 K, 70035 kPa, m1 = 0.2335 | 838.62
313.16 K, 80024 kPa, m1 = 2.833 | 989.48
313.16 K, 99649 kPa, m1 = 1.462 | 925.34
313.17 K, 1995 kPa, m1 = 3.368 | 968.15
313.17 K, 5344 kPa, m1 = 3.368 | 970.84
313.17 K, 10286 kPa, m1 = 3.368 | 974.66
313.17 K, 19807 kPa, m1 = 3.368 | 981.61
313.17 K, 29957 kPa, m1 = 3.368 | 988.47
313.17 K, 40021 kPa, m1 = 2.833 | 967.43
313.17 K, 40159 kPa, m1 = 3.368 | 994.86
313.17 K, 49914 kPa, m1 = 3.368 | 1000.58
313.17 K, 80160 kPa, m1 = 2.272 | 960.11
313.17 K, 89963 kPa, m1 = 2.272 | 965.03
313.17 K, 99603 kPa, m1 = 3.368 | 1026.1
313.18 K, 59836 kPa, m1 = 3.368 | 1006.06
313.18 K, 69925 kPa, m1 = 3.368 | 1011.36
313.18 K, 89986 kPa, m1 = 3.368 | 1021.4
313.18 K, 100029 kPa, m1 = 2.272 | 969.91
313.19 K, 1459 kPa, m1 = 0.5972 | 812.65
313.2 K, 79843 kPa, m1 = 3.368 | 1016.39
323.13 K, 5012 kPa, m1 = 0.2335 | 784.23
323.13 K, 79954 kPa, m1 = 0.5972 | 859.95
323.14 K, 10001 kPa, m1 = 0.2335 | 788.63
323.14 K, 19956 kPa, m1 = 2.833 | 946.78
323.14 K, 29926 kPa, m1 = 3.368 | 981.06
323.14 K, 39945 kPa, m1 = 2.272 | 930.75
323.14 K, 39954 kPa, m1 = 1.462 | 885.66
323.14 K, 49912 kPa, m1 = 0.2335 | 819.58
323.14 K, 69926 kPa, m1 = 2.833 | 977.81
323.14 K, 70002 kPa, m1 = 1.462 | 904.07
323.14 K, 70002 kPa, m1 = 3.368 | 1004.85
323.15 K, 1023 kPa, m1 = 2.833 | 931.78
323.15 K, 1026 kPa, m1 = 0.5972 | 803.74
323.15 K, 1032 kPa, m1 = 2.272 | 901.6
323.15 K, 1032 kPa, m1 = 3.368 | 959.14
323.15 K, 1035 kPa, m1 = 1.462 | 855.48
323.15 K, 1203 kPa, m1 = 0.9499 | 825.48
323.15 K, 2012 kPa, m1 = 0.2335 | 781.53
323.15 K, 5014 kPa, m1 = 3.368 | 962.48
323.15 K, 5021 kPa, m1 = 0.5972 | 807.24
323.15 K, 5021 kPa, m1 = 2.833 | 935.15
323.15 K, 5024 kPa, m1 = 2.272 | 905.02
323.15 K, 5106 kPa, m1 = 1.462 | 859.08
323.15 K, 5451 kPa, m1 = 0.9499 | 829.11
323.15 K, 9995 kPa, m1 = 2.833 | 939.18
323.15 K, 10002 kPa, m1 = 2.272 | 909.13
323.15 K, 10023 kPa, m1 = 0.5972 | 811.53
323.15 K, 10026 kPa, m1 = 0.9499 | 832.95
323.15 K, 10065 kPa, m1 = 1.462 | 863.3
323.15 K, 19957 kPa, m1 = 0.9499 | 840.97
323.15 K, 19957 kPa, m1 = 3.368 | 974.07
323.15 K, 20023 kPa, m1 = 0.2335 | 797.12
323.15 K, 29784 kPa, m1 = 2.833 | 953.72
323.15 K, 29928 kPa, m1 = 0.9499 | 848.61
323.15 K, 29975 kPa, m1 = 1.462 | 878.73
323.15 K, 29978 kPa, m1 = 0.5972 | 827.54
323.15 K, 29986 kPa, m1 = 2.272 | 924.09
323.15 K, 39784 kPa, m1 = 0.9499 | 855.75
323.15 K, 39926 kPa, m1 = 0.2335 | 812.55
323.15 K, 39984 kPa, m1 = 3.368 | 987.61
323.15 K, 49921 kPa, m1 = 2.272 | 937
323.15 K, 49926 kPa, m1 = 1.462 | 892.13
323.15 K, 49928 kPa, m1 = 0.9499 | 862.68
323.15 K, 50001 kPa, m1 = 0.5972 | 841.84
323.15 K, 50021 kPa, m1 = 2.833 | 966.58
323.15 K, 59924 kPa, m1 = 3.368 | 999.37
323.15 K, 59926 kPa, m1 = 0.2335 | 825.76
323.15 K, 59957 kPa, m1 = 1.462 | 898.25
323.15 K, 59986 kPa, m1 = 2.833 | 972.34
323.15 K, 60024 kPa, m1 = 0.9499 | 869.15
323.15 K, 69794 kPa, m1 = 0.9499 | 875
323.15 K, 69794 kPa, m1 = 2.272 | 948.43
323.15 K, 69923 kPa, m1 = 0.5972 | 854.32
323.15 K, 79923 kPa, m1 = 1.462 | 909.56
323.15 K, 79924 kPa, m1 = 0.2335 | 837.48
323.15 K, 79926 kPa, m1 = 3.368 | 1010.05
323.15 K, 79935 kPa, m1 = 0.9499 | 880.66
323.15 K, 79953 kPa, m1 = 2.272 | 953.9
323.15 K, 79956 kPa, m1 = 2.833 | 983.13
323.15 K, 89924 kPa, m1 = 3.368 | 1015.15
323.15 K, 89925 kPa, m1 = 0.9499 | 885.81
323.15 K, 89926 kPa, m1 = 2.272 | 959.13
323.15 K, 89956 kPa, m1 = 0.2335 | 843.04
323.15 K, 89958 kPa, m1 = 2.833 | 988.29
323.15 K, 90021 kPa, m1 = 0.5972 | 865.14
323.15 K, 99678 kPa, m1 = 2.833 | 993.25
323.15 K, 99745 kPa, m1 = 0.5972 | 869.74
323.15 K, 99956 kPa, m1 = 3.368 | 1020.21
323.15 K, 99957 kPa, m1 = 1.462 | 920.17
323.15 K, 99965 kPa, m1 = 0.2335 | 847.91
323.15 K, 99969 kPa, m1 = 0.9499 | 890.57
323.15 K, 99985 kPa, m1 = 2.272 | 964.32
323.16 K, 10058 kPa, m1 = 3.368 | 966.55
323.16 K, 19945 kPa, m1 = 0.5972 | 819.71
323.16 K, 19956 kPa, m1 = 2.272 | 916.87
323.16 K, 20003 kPa, m1 = 1.462 | 871.29
323.16 K, 29921 kPa, m1 = 0.2335 | 805.03
323.16 K, 39928 kPa, m1 = 2.833 | 960.39
323.16 K, 49957 kPa, m1 = 3.368 | 993.67
323.16 K, 60002 kPa, m1 = 2.272 | 942.94
323.16 K, 70004 kPa, m1 = 0.2335 | 831.8
323.16 K, 89956 kPa, m1 = 1.462 | 914.93
323.17 K, 39926 kPa, m1 = 0.5972 | 834.87
323.18 K, 59974 kPa, m1 = 0.5972 | 848.31

Source: the NIST ThermoML archive (doi:10.1021/je1003065)
